Reference: patent publication US4146624A, “Method of treating viruses with bis-basic ketones of dibenzofuran” (Richardson-Merrell Inc., priority 1970, dated 1979)
Counter-ions that a name gives are not always drawn.

Tested on: Encephalomyocarditis
Experiment: in vivo antiviral study, mice challenged subcutaneously with encephalomyocarditis virus
Conditions: observation 9 days
Procedure: Examples 25 to 36 illustrate in vivo antiviral studies with compounds, also referred to as active ingredients, of this invention. In each of the examples the compounds were antivirally active. […] The dosage levels of the compounds used in the examples were within the range of 10 to 250 mg. per kg. of animal body weight for each time the compound was administered.
Table A lists the active ingredient which was administered in each of the examples. Although it is believed that the headings in the examples are self-explanatory, some of the headings are explained as follows. The "challenge," that is, the inoculation with a virus used is generally fatal to all the untreated, that is, control animals in the experiment. "Time of death" refers to the average time of death for the untreated animals. The "Treatment" was prophylactic or therapeutic or both. The term "volume" refers to the volume of composition administered per dose which contained the active ingredient dissolved in sterile water which also contained 0.15% of hydroxyethylcellulose.

[1] = prophylactic, 250 mg/kg oral, 22 hrs. pre-challenge, challenge 6 LD50
[2] = Proph. & Therap., 50 mg/kg subcutaneous, 28,22,2 hrs. pre- and 2 hrs. post-challenge, challenge 10 LD50

## O=C(CCCN1CCCCC1)c1ccc2oc3ccc(C(=O)CCCN4CCCCC4)cc3c2c1 [Example 25, 2,8-bis-(4-piperidinobutyryl)dibenzofuran]
prophylactic, 50 mg/kg subcutaneous, 28,22,2 hrs. pre-challenge, challenge 6 LD50
  antiviral activity: Yes
[1]
  antiviral activity: Yes

## CC1CCN(CCCC(=O)c2ccc3oc4ccc(C(=O)CCCN5CCC(C)CC5)cc4c3c2)CC1 [Example 27, 2,8-bis-[4-(4-methylpiperidino)butyryl]dibenzofuran]
Proph. & Therap., 10 mg/kg subcutaneous, 28,22,2 hrs. pre- and 2 hrs. post-challenge, challenge 6 LD50
  antiviral activity: Yes
[1]
  antiviral activity: Yes

## O=C(CCCN1CCC(Cc2ccccc2)CC1)c1ccc2oc3ccc(C(=O)CCCN4CCC(Cc5ccccc5)CC4)cc3c2c1 [Example 29, 2,8-bis-[4-(4-benzylpiperidino)butyryl]dibenzofuran]
Proph. & Therap., 10 mg/kg subcutaneous, 28,22,2 hrs. pre- and 2 hrs. post-challenge, challenge 18 LD50
  antiviral activity: Yes

## O=C(CCCN1CCOCC1)c1ccc2oc3ccc(C(=O)CCCN4CCOCC4)cc3c2c1 [Example 30, 2,8-bis-(4-morpholinobutyryl)dibenzofuran]
[2]
  antiviral activity: Yes

## O=C(CN1CCCCC1)c1ccc2oc3ccc(C(=O)CN4CCCCC4)cc3c2c1 [Example 31, 2,8-bis-(piperidinoacetyl)dibenzofuran]
Proph. & Therap., 250 mg/kg subcutaneous, 28,22,2 hrs. pre- and 2 hrs. post-challenge, challenge 32 LD50
  antiviral activity: Yes
prophylactic, 250 mg/kg oral, 22 hrs. pre-challenge, challenge 32 LD50
  antiviral activity: Yes

## CCN(CC)CC(=O)c1ccc2oc3ccc(C(=O)CN(CC)CC)cc3c2c1 [Example 33, 2,8-bis-[2-(diethylamino)acetyl]dibenzofuran dihydrochloride hemihydrate]
Proph. & Therap., 50 mg/kg subcutaneous, 28,22,2 hrs. pre- and 2 hrs. post-challenge, challenge 12 LD50
  antiviral activity: Yes
prophylactic, 250 mg/kg oral, 22 hrs. pre-challenge, challenge 12 LD50
  antiviral activity: Yes

## CN(C)CC(=O)c1ccc2oc3ccc(C(=O)CN(C)C)cc3c2c1.Cl.Cl.O.O [Example 35, 2,8-bis-[2-(dimethylamino)acetyl]dibenzofuran dihydrochloride dihydrate]
Proph. & Therap., 50 mg/kg oral, 28,22,2 hrs. pre- and 2 hrs. post-challenge, challenge 10 LD50
  antiviral activity: Yes
[2]
  antiviral activity: Yes
